Measured values taken from ChEMBL document CHEMBL1201862, “PubChem BioAssay data set” (2004).
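Values below derive from 48-hour exposures of cells grown in 96-well plates, with endpoints linearly interpolated between the two concentrations bracketing the appropriate inhibition level. GI50 marks 50% less growth.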 The source made the active and inactive calls. No stated cut-off is given here; in the data, active = GI50 up to about 1.1 µM and inactive = higher.

Key:
Assay in all cases: inhibition of tumour cell growth, NCI panel, 48 h
HOP-92 = tested on: HOP-92
SF-539 = tested on: SF-539
RPMI-8226 = tested on: RPMI-8226
K562 = tested on: K562
SF-295 = tested on: SF-295
T47D = tested on: T47D
HCT-116 = tested on: HCT-116
PC-3 = tested on: PC-3
M14 = tested on: M14
SK-OV-3 = tested on: SK-OV-3
UO-31 = tested on: UO-31
SK-MEL-28 = tested on: SK-MEL-28
A498 = tested on: A498
SK-MEL-5 = tested on: SK-MEL-5
MCF7 = tested on: MCF7
UACC-257 = tested on: UACC-257
RXF 393 = tested on: RXF 393
NCI-H23 = tested on: NCI-H23
SR = tested on: SR

Measured: GI50

Cc1cn([C@@H]2O[C@H](CO[Si](C)(C)C(C)(C)C)[C@]3(O[C@H]3C(=O)NO)[C@H]2O[Si](C)(C)C(C)(C)C)c(=O)[nH]c1=O
inactive: HOP-92 1.94 µM | SF-539 1.5 µM | RPMI-8226 1.18 µM | K562 2.47 µM | SF-295 1.77 µM | T47D 1.66 µM | HCT-116 1.52 µM | PC-3 2.26 µM | M14 1.85 µM | SK-OV-3 1.87 µM | UO-31 1.74 µM | SK-MEL-28 1.76 µM | A498 1.9 µM | SK-MEL-5 1.92 µM | MCF7 1.71 µM | UACC-257 2.59 µM | RXF 393 1.73 µM | NCI-H23 1.91 µM

COc1cc(C(C)=O)cc(C(=O)N(C(C)C)C(C)C)c1[Si](C)(C)C
inactive: HOP-92 99.3 µM | SF-539 > 100 µM | SF-295 > 100 µM | T47D > 100 µM | HCT-116 > 100 µM | PC-3 > 100 µM | M14 > 100 µM | SK-OV-3 28.9 µM | UO-31 > 100 µM | SK-MEL-28 > 100 µM | A498 > 100 µM | SK-MEL-5 > 100 µM | MCF7 > 100 µM | UACC-257 > 100 µM | NCI-H23 52.8 µM

CN(C)C(=O)C(F)(F)C(c1ccccc1Br)C1C(=O)N(C)C(=O)N(C)C1=O (centres undefined)
inactive: HOP-92 > 100 µM | RPMI-8226 > 100 µM | K562 > 100 µM | SF-295 > 100 µM | T47D > 100 µM | HCT-116 > 100 µM | PC-3 > 100 µM | M14 > 100 µM | SK-OV-3 > 100 µM | UO-31 > 100 µM | SK-MEL-28 > 100 µM | A498 > 100 µM | SK-MEL-5 > 100 µM | MCF7 > 100 µM | UACC-257 > 100 µM | RXF 393 > 100 µM | NCI-H23 > 100 µM

OC(c1ccc(F)cc1)(c1ccc(F)cc1)C1CC1
inactive: HOP-92 33.8 µM | SF-539 33.3 µM | RPMI-8226 26.9 µM | K562 31.4 µM | SF-295 27.9 µM | T47D 38 µM | HCT-116 26.8 µM | PC-3 20 µM | M14 21.5 µM | SK-OV-3 37.9 µM | UO-31 21.3 µM | SK-MEL-28 30 µM | A498 29.2 µM | SK-MEL-5 16.6 µM | MCF7 35.7 µM | UACC-257 26 µM | RXF 393 26.9 µM | NCI-H23 17.5 µM

CN(CCc1ccccn1)c1ccc2c(c1)C(=O)c1ccccc1-2
inactive: HOP-92 15.2 µM | RPMI-8226 38.3 µM | K562 51.8 µM | SF-295 91.4 µM | T47D 73.8 µM | HCT-116 > 100 µM | PC-3 > 100 µM | M14 > 100 µM | SK-OV-3 > 100 µM | UO-31 > 100 µM | SK-MEL-28 > 100 µM | A498 35.2 µM | SK-MEL-5 35.1 µM | MCF7 > 100 µM | UACC-257 54.6 µM | RXF 393 > 100 µM | NCI-H23 > 100 µM

Cc1[nH]c2ncn3ncnc3c2c1Cc1ccccc1
inactive: HOP-92 54.1 µM | SF-539 > 100 µM | SF-295 > 100 µM | T47D > 100 µM | HCT-116 > 100 µM | PC-3 > 100 µM | M14 > 100 µM | SK-OV-3 > 100 µM | UO-31 > 100 µM | SK-MEL-28 > 100 µM | A498 > 100 µM | SK-MEL-5 > 100 µM | MCF7 > 100 µM | UACC-257 > 100 µM | RXF 393 50 µM | NCI-H23 91.6 µM

O=[N+]([O-])/C(C(Cl)=C(Cl)Cl)=C(/Nc1ccccc1)SCc1ccccc1
inactive: HOP-92 31 µM | SR 22.3 µM | SF-539 23.4 µM | RPMI-8226 14.1 µM | K562 24 µM | SF-295 34.4 µM | T47D 34.6 µM | HCT-116 16.6 µM | PC-3 24.5 µM | M14 16.9 µM | SK-OV-3 52 µM | UO-31 20.8 µM | SK-MEL-28 20.4 µM | A498 25.9 µM | SK-MEL-5 21.6 µM | UACC-257 24 µM | RXF 393 19.4 µM | NCI-H23 20.1 µM

CN(CCc1ccccn1)c1ccc2c(c1)Cc1ccccc1-2
inactive: HOP-92 10.2 µM | RPMI-8226 14.1 µM | K562 9.31 µM | SF-295 12.1 µM | T47D 25.2 µM | HCT-116 11.1 µM | PC-3 2.92 µM | M14 26.7 µM | SK-OV-3 24.2 µM | UO-31 38.2 µM | SK-MEL-28 29.2 µM | A498 16.8 µM | SK-MEL-5 12.6 µM | MCF7 20.1 µM | UACC-257 26.2 µM | RXF 393 25.1 µM | NCI-H23 27.7 µM

Cc1cnc(-n2c(C)nc3cc(Cl)ccc3c2=O)s1
inactive: HOP-92 47.6 µM | SF-539 20.7 µM | K562 31.1 µM | SF-295 37.1 µM | T47D 21.3 µM | HCT-116 22 µM | PC-3 27.9 µM | M14 31.6 µM | SK-OV-3 > 100 µM | UO-31 1.28 µM | SK-MEL-28 49.7 µM | A498 20.4 µM | SK-MEL-5 16 µM | MCF7 17.9 µM | UACC-257 29.1 µM | NCI-H23 23.3 µM

Clc1ccc2c(NCCCC/N=C/c3ccccc3)ccnc2c1
inactive: HOP-92 5.52 µM | SF-539 11.9 µM | RPMI-8226 18.1 µM | K562 5.01 µM | SF-295 10.4 µM | T47D 12.6 µM | HCT-116 6.24 µM | PC-3 10.4 µM | M14 14.4 µM | SK-OV-3 10.1 µM | UO-31 14.8 µM | SK-MEL-28 15 µM | A498 3.01 µM | SK-MEL-5 13.5 µM | MCF7 11.1 µM | UACC-257 12.3 µM | RXF 393 4.09 µM | NCI-H23 11 µM

CCCCOC(=O)C(O)Cc1ccoc1 (centres undefined)
inactive: SF-539 > 100 µM | RPMI-8226 > 100 µM | K562 > 100 µM | SF-295 > 100 µM | T47D > 100 µM | HCT-116 > 100 µM | PC-3 > 100 µM | M14 > 100 µM | SK-OV-3 > 100 µM | UO-31 > 100 µM | SK-MEL-28 > 100 µM | A498 > 100 µM | SK-MEL-5 > 100 µM | MCF7 > 100 µM | RXF 393 > 100 µM | NCI-H23 > 100 µM

C[C@]12CC[C@@H]3c4ccc(OP(=O)(O)O)cc4CC[C@H]3[C@@H]1CCC2=O
inactive: HOP-92 > 100 µM | SF-539 81.8 µM | RPMI-8226 44.4 µM | K562 46.3 µM | SF-295 71.8 µM | T47D 39.6 µM | HCT-116 55.1 µM | PC-3 62.4 µM | M14 61.4 µM | SK-OV-3 > 100 µM | UO-31 80.7 µM | SK-MEL-28 > 100 µM | A498 > 100 µM | SK-MEL-5 28.4 µM | MCF7 > 100 µM | UACC-257 > 100 µM | RXF 393 56.9 µM | NCI-H23 63.1 µM
